In patent publication US11109593B2, “Isoxazolin-5-one derivative and herbicide containing same as active ingredient” (HOKKO CHEMICAL INDUSTRY CO., LTD., priority 2017, dated 2021):

Tests used:
Type in all cases: in vivo
[1] = test system: broad leaf weeds (Lindernia pyxidaria and Monochoria vaginalis); assay: Test Example 2: herbicidal effect test by treatment during growing period in paddy rice cultivation (seven days after seeding); conditions: 120 g/10a active ingredient, assessed 14 days after treatment, dry weight vs untreated area
Procedure, shortened: (§1)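 Paddy soil in Wagner pots with compound fertilizer, puddled; 30 seeds per species sown at 0–1 cm, flooded ~3 cm, greenhouse. Seven days after seeding, water-diluted emulsions were dropped into the water at 120 g active ingredient per 10 ares. Duplicate pots; herbicidal rate from dry weight versus untreated, 14 days after treatment.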

Scirpus juncoides [2] = assay: as above; conditions: 120 g/10a active ingredient, assessed 14 days after treatment, dry weight vs untreated area
Procedure, shortened: as §1

Echinochloa crus-galli [3] = assay: as above; conditions: 120 g/10a active ingredient, assessed 14 days after treatment, dry weight vs untreated area
Procedure, shortened: as §1

[4] = test system: broad leaf weeds (Lindernia pyxidaria and Monochoria vaginalis); assay: Test Example 1: herbicidal effect test by treatment of rice paddy soil (immediately after seeding); conditions: 120 g/10a active ingredient, dry weight vs untreated area, 14 days after treatment
Procedure, shortened: (§2)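 Pre-emergence paddy water application, 120 g a.i./10 ares, applied immediately post-seeding into ~3 cm flood; glasshouse; duplicate pots; dry weight at 14 d → % inhibition = (1 − treated/untreated) × 100.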

Scirpus juncoides [5] = assay: as above; conditions: 120 g/10a active ingredient, dry weight vs untreated area, 14 days after treatment
Procedure, shortened: as §2

Echinochloa crus-galli [6] = assay: as above; conditions: 120 g/10a active ingredient, dry weight vs untreated area, 14 days after treatment
Procedure, shortened: as §2

Row | Structure (SMILES) | Herbicidal rate (%) Lindernia pyxidaria [1] [%] | Herbicidal rate (%) Monochoria vaginalis [1] [%] | Herbicidal rate (%) Scirpus juncoides (Scirpus juncoides [2]) [%] | Herbicidal rate (%) Echinochloa crus-galli (Echinochloa crus-galli [3]) [%] | Herbicidal rate (%) Lindernia pyxidaria [4] [%] | Herbicidal rate (%) Monochoria vaginalis [4] [%] | Herbicidal rate (%) Scirpus juncoides (Scirpus juncoides [5]) [%] | Herbicidal rate (%) Echinochloa crus-galli (Echinochloa crus-galli [6]) [%]
1 | Cc1c(Cc2ccccc2NS(=O)(=O)C(F)(F)F)c(=O)on1Cc1ccc(C#N)cc1 [Compound 1-189] | 80 | 80 | 80 | 60 | 100 | 90 | 90 | 90
2 | CCC(CC)Cn1oc(=O)c(Cc2ccccc2N(CC)S(=O)(=O)C(F)(F)F)c1C [Compound 1-264] | 50 | 80 | 90 | 80 | 80 | 90 | 100 | 90
3 | Cc1c(Cc2ccccc2NS(=O)(=O)C(F)(F)F)c(=O)on1Cc1ccc(F)cc1Cl [Compound 1-201] | 70 | 70 | 40 | 40 | 90 | 80 | 100 | 90
4 | Cc1c(Cc2ccccc2NS(=O)(=O)C(F)(F)F)c(=O)on1Cc1cccc(C(F)(F)F)c1 [Compound 1-193] | 80 | 80 | 70 | 60 | 100 | 100 | 90 | 90
5 | Cc1c(Cc2ccccc2NS(=O)(=O)C(F)(F)F)c(=O)on1Cc1ccc(F)c(F)c1 [Compound 1-200] | 90 | 90 | 80 | 60 | 100 | 100 | 90 | 90
6 | CC(C)c1c(Cc2ccccc2N(S(=O)(=O)C(F)(F)F)S(=O)(=O)C(F)(F)F)c(=O)on1C(C)C [Compound 1-69] | 40 | 60 | 60 | 60 | 70 | 70 | 90 | 80
7 | Cc1c(Cc2ccccc2NS(=O)(=O)C(F)(F)F)c(=O)on1Cc1cccc(F)c1 [Compound 1-182] | 60 | 60 | 70 | 40 | 100 | 90 | 100 | 90
8 | Cc1c(Cc2ccccc2N(S(=O)(=O)C(F)(F)F)S(=O)(=O)C(F)(F)F)c(=O)on1C(C)c1ccccc1Cl (stereo not drawn) [Compound 1-1032] | 40 | 40 | 40 | 40 | 90 | 90 | 90 | 80
9 | Cc1c(Cc2ccccc2N(S(=O)(=O)C(F)(F)F)S(=O)(=O)C(F)(F)F)c(=O)on1Cc1cccc(C(F)(F)F)c1 [Compound 1-1020] | 40 | 40 | 40 | 60 | 80 | 40 | 40 | 50
10 | Cc1c(Cc2ccccc2NS(=O)(=O)C(F)(F)F)c(=O)on1Cc1ccc(SC(F)(F)F)cc1 [Compound 1-198] | 90 | 90 | 40 | 40 | 100 | 100 | 80 | 80
11 | Cc1c(Cc2ccccc2N(S(=O)(=O)C(F)(F)F)S(=O)(=O)C(F)(F)F)c(=O)on1C(C)c1ccc(Cl)cc1 (stereo not drawn) [Compound 1-1034] | 80 | 80 | 90 | 90 | 100 | 100 | 90 | 100
12 | Cc1c(Cc2ccccc2N(S(=O)(=O)C(F)(F)F)S(=O)(=O)C(F)(F)F)c(=O)on1CC1CC1 [Compound 1-991] | 70 | 80 | 90 | 90 | 100 | 100 | 90 | 90
13 | Cc1c(Cc2ccccc2NS(=O)(=O)C(F)(F)F)c(=O)on1Cc1ccsc1 [Compound 1-232] | 40 | 40 | 60 | 70 | 80 | 90 | 90 | 90
14 | CCN(c1ccccc1Cc1c(C)n(CC(C)C)oc1=O)S(=O)(=O)C(F)(F)F [Compound 1-263] | 40 | 60 | 90 | 90 | 80 | 50 | 60 | 50
15 | COCCn1oc(=O)c(Cc2ccccc2N(S(=O)(=O)C(F)(F)F)S(=O)(=O)C(F)(F)F)c1C [Compound 1-996] | 70 | 80 | 90 | 70 | 80 | 80 | 90 | 90
